Assay results as given in publication PMC9403976, “Elucidating the path to Plasmodium prolyl-tRNA synthetase inhibitors that overcome halofuginone resistance” (Nature Communications, 2022).
Values joined by “and” are separate entries in the source; they are usually repeats but may differ in a detail not shown here. Equal values may be shown once. Read-outs that look alike come from different tables or passages of the source.

How the values were obtained:
P. falciparum Dd2-2D4 = assay: P. falciparum asexual blood stage (ABS) growth assay, SYBR Green, 72 h, wild-type parasites; type: cell-based, Plasmodium falciparum; conditions: wildtype (Dd2-2D4); 20 μM
PfcProRS = molecular target: T1, PfcProRS (Plasmodium falciparum, UniProt Q8I5R7); type: binding; conditions: for dose-response signal (normalized), SI Fig 8: single replicates
T1 construct: made in house; host or cells: E. coli SoluBL-21
T1 sequence (Q8I5R7 249-746): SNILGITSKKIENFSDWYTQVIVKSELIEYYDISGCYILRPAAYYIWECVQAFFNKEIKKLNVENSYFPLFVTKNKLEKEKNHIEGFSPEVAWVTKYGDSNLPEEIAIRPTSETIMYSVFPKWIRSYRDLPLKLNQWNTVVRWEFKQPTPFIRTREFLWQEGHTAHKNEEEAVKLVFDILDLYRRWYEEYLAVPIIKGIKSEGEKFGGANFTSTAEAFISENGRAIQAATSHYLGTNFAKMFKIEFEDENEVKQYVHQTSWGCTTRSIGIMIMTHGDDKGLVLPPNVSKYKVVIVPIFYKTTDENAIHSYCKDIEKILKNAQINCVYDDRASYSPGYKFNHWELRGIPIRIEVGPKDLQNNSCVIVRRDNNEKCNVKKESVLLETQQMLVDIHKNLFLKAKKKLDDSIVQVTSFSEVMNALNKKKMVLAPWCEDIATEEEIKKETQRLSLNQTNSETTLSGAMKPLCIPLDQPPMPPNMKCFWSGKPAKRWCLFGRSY

HsProRS = HsProRS (Homo sapiens, UniProt P07814); assay: TR-FRET ligand displacement assay with tracer MAT379 (CoraFluor-1-Halo and anti-His6 antibody formats); type: binding; parameters: made in house; host or cells: E. coli SoluBL-21; conditions: for TR-FRET dose-response, normalized signal (SI Fig 11): individual replicates
HsProRS, sequence (P07814 996-1512): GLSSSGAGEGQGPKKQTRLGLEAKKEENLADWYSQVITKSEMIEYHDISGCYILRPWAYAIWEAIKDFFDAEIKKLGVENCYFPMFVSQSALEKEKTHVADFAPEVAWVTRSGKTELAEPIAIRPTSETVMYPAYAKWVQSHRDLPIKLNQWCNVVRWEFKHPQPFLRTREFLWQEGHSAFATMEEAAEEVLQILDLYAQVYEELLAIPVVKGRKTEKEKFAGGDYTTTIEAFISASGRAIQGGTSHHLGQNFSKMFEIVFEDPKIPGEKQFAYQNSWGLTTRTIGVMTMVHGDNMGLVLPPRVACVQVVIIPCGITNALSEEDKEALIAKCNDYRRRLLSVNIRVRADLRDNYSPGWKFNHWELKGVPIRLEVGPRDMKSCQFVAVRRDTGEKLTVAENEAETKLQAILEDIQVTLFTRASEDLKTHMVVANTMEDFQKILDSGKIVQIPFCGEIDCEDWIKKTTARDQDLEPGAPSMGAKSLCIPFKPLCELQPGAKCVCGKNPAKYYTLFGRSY

Compound: O=C(NC1Cc2ccccc2C1)c1nccnc1NC(=O)C1CCOCC1 [compound 18]
- % signal at 20 μM, wildtype (Dd2-2D4) (P. falciparum Dd2-2D4): 108%
- dose-response signal (normalized), SI Fig 8 (PfcProRS; Log[inhibitor] (M) -5.000): 3.01E-01 and 4.11E-01 and 4.27E-01
- dose-response signal (normalized), SI Fig 8 (PfcProRS; Log[inhibitor] (M) -5.301): 6.53E-01 and 6.16E-01 and 6.73E-01
- dose-response signal (normalized), SI Fig 8 (PfcProRS; Log[inhibitor] (M) -5.601): 8.02E-01 and 8.42E-01 and 8.63E-01
- dose-response signal (normalized), SI Fig 8 (PfcProRS; Log[inhibitor] (M) -5.904): 1.01E+00 and 1.00E+00 and 9.12E-01
- dose-response signal (normalized), SI Fig 8 (PfcProRS; Log[inhibitor] (M) -6.208): 1.03E+00 and 1.00E+00 and 9.60E-01
- dose-response signal (normalized), SI Fig 8 (PfcProRS; Log[inhibitor] (M) -6.509): 1.16E+00 and 9.38E-01 and 1.04E+00
- dose-response signal (normalized), SI Fig 8 (PfcProRS; Log[inhibitor] (M) -6.796): 9.96E-01 and 9.92E-01 and 1.04E+00
- dose-response signal (normalized), SI Fig 8 (PfcProRS; Log[inhibitor] (M) -7.108): 1.02E+00 and 9.74E-01 and 9.75E-01
- dose-response signal (normalized), SI Fig 8 (PfcProRS; Log[inhibitor] (M) -7.409): 1.01E+00 (2×) and 1.08E+00
- dose-response signal (normalized), SI Fig 8 (PfcProRS; Log[inhibitor] (M) -7.710): 9.82E-01 and 1.05E+00 and 9.42E-01
- dose-response signal (normalized), SI Fig 8 (PfcProRS; Log[inhibitor] (M) -8.000): 1.03E+00 and 1.10E+00 and 9.98E-01
- dose-response signal (normalized), SI Fig 8 (PfcProRS; Log[inhibitor] (M) -8.301): 9.51E-01 and 1.13E+00 and 9.71E-01
- dose-response signal (normalized), SI Fig 8 (PfcProRS; Log[inhibitor] (M) -8.602): 1.03E+00 and 9.75E-01 and 1.04E+00
- dose-response signal (normalized), SI Fig 8 (PfcProRS; Log[inhibitor] (M) -9.000): 9.05E-01 and 1.01E+00 and 9.83E-01
- dose-response signal (normalized), SI Fig 8 (PfcProRS; Log[inhibitor] (M) -9.301): 9.17E-01 and 9.20E-01 and 9.09E-01
- PfcProRS -- best Kd (PfcProRS; SI Fig 16a, values on -log scale): 5.799
- Kd (HsProRS; HsProRS (KD [nM]) mean, no added proline/ATP (-)): 7400 nM
- Kd (HsProRS; HsProRS - best Kd, SI Fig 16a, values on -log scale): 225 nM
- normalized TR-FRET ligand displacement signal, dose-response replicates (SI Fig 6) (HsProRS; Log[inhibitor] (M) -5.000): 6.96E-01 and 5.92E-01 and 5.43E-01
- TR-FRET dose-response, normalized signal (SI Fig 11) (HsProRS; Log[inhibitor] (M) -5.000): 4.20E-01 and 4.17E-01 and 4.61E-01
- normalized TR-FRET ligand displacement signal, dose-response replicates (SI Fig 6) (HsProRS; Log[inhibitor] (M) -5.301): 8.37E-01 and 8.70E-01 and 8.44E-01
- TR-FRET dose-response, normalized signal (SI Fig 11) (HsProRS; Log[inhibitor] (M) -5.301): 6.08E-01 and 6.33E-01 and 6.32E-01
- normalized TR-FRET ligand displacement signal, dose-response replicates (SI Fig 6) (HsProRS; Log[inhibitor] (M) -5.601): 9.23E-01 and 9.21E-01 and 9.37E-01
- TR-FRET dose-response, normalized signal (SI Fig 11) (HsProRS; Log[inhibitor] (M) -5.601): 7.60E-01 and 7.57E-01 and 7.53E-01
- normalized TR-FRET ligand displacement signal, dose-response replicates (SI Fig 6) (HsProRS; Log[inhibitor] (M) -5.904): 9.48E-01 and 1.01E+00 and 1.07E+00
- TR-FRET dose-response, normalized signal (SI Fig 11) (HsProRS; Log[inhibitor] (M) -5.904): 8.33E-01 and 8.64E-01 and 8.38E-01
- normalized TR-FRET ligand displacement signal, dose-response replicates (SI Fig 6) (HsProRS; Log[inhibitor] (M) -6.208): 1.06E+00 (2×) and 1.00E+00
- TR-FRET dose-response, normalized signal (SI Fig 11) (HsProRS; Log[inhibitor] (M) -6.208): 8.52E-01 and 9.04E-01 and 9.21E-01
- normalized TR-FRET ligand displacement signal, dose-response replicates (SI Fig 6) (HsProRS; Log[inhibitor] (M) -6.509): 1.01E+00 and 1.02E+00 and 9.62E-01
- TR-FRET dose-response, normalized signal (SI Fig 11) (HsProRS; Log[inhibitor] (M) -6.509): 9.56E-01 and 9.24E-01 and 9.57E-01
- normalized TR-FRET ligand displacement signal, dose-response replicates (SI Fig 6) (HsProRS; Log[inhibitor] (M) -6.796): 9.72E-01 and 9.92E-01 and 1.02E+00
- TR-FRET dose-response, normalized signal (SI Fig 11) (HsProRS; Log[inhibitor] (M) -6.796): 9.31E-01 (2×) and 9.72E-01
- normalized TR-FRET ligand displacement signal, dose-response replicates (SI Fig 6) (HsProRS; Log[inhibitor] (M) -7.108): 9.59E-01 and 8.74E-01 and 9.90E-01
- TR-FRET dose-response, normalized signal (SI Fig 11) (HsProRS; Log[inhibitor] (M) -7.108): 9.27E-01 and 9.12E-01 and 9.11E-01
- normalized TR-FRET ligand displacement signal, dose-response replicates (SI Fig 6) (HsProRS; Log[inhibitor] (M) -7.409): 9.78E-01 and 1.02E+00 and 1.05E+00
- TR-FRET dose-response, normalized signal (SI Fig 11) (HsProRS; Log[inhibitor] (M) -7.409): 9.66E-01 (2×) and 9.82E-01
- normalized TR-FRET ligand displacement signal, dose-response replicates (SI Fig 6) (HsProRS; Log[inhibitor] (M) -7.710): 9.30E-01 and 1.05E+00 and 1.11E+00
- TR-FRET dose-response, normalized signal (SI Fig 11) (HsProRS; Log[inhibitor] (M) -7.710): 9.81E-01 and 9.38E-01 and 9.42E-01
- normalized TR-FRET ligand displacement signal, dose-response replicates (SI Fig 6) (HsProRS; Log[inhibitor] (M) -8.000): 9.51E-01 and 9.79E-01 and 1.05E+00
- TR-FRET dose-response, normalized signal (SI Fig 11) (HsProRS; Log[inhibitor] (M) -8.000): 9.53E-01 and 9.52E-01 and 9.49E-01
- normalized TR-FRET ligand displacement signal, dose-response replicates (SI Fig 6) (HsProRS; Log[inhibitor] (M) -8.301): 9.09E-01 and 9.22E-01 and 9.59E-01
- TR-FRET dose-response, normalized signal (SI Fig 11) (HsProRS; Log[inhibitor] (M) -8.301): 9.20E-01 and 1.00E+00 and 8.97E-01
- normalized TR-FRET ligand displacement signal, dose-response replicates (SI Fig 6) (HsProRS; Log[inhibitor] (M) -8.602): 9.55E-01 and 9.72E-01 and 1.02E+00
- TR-FRET dose-response, normalized signal (SI Fig 11) (HsProRS; Log[inhibitor] (M) -8.602): 9.41E-01 and 9.60E-01 and 9.87E-01
- normalized TR-FRET ligand displacement signal, dose-response replicates (SI Fig 6) (HsProRS; Log[inhibitor] (M) -9.000): 9.17E-01 and 1.01E+00 and 9.46E-01
- TR-FRET dose-response, normalized signal (SI Fig 11) (HsProRS; Log[inhibitor] (M) -9.000): 9.26E-01 and 9.53E-01 and 9.30E-01
- normalized TR-FRET ligand displacement signal, dose-response replicates (SI Fig 6) (HsProRS; Log[inhibitor] (M) -9.301): 9.60E-01 and 1.07E+00 and 9.73E-01
- TR-FRET dose-response, normalized signal (SI Fig 11) (HsProRS; Log[inhibitor] (M) -9.301): 9.44E-01 and 9.56E-01 and 9.33E-01
